From the supplement of paper PMC11208160

Assay: recombinant barcode read abundance after kanamycin selection (control-corrected) (log10(CPM+1)); higher = more efficient recombination; sequences stand for … in AGTGCAGAGAAAATCGGCCAGTTTTCTCTGCCTGCAGTCCGCATGCCGT…AGATTTATGCAGCGGACTGCCTTTCTCCCAAAGTGATAAACCGGACAGTATCATGGACCGGTTTTCCCGGTAATCCGTATTTGCAAGGTTGGTTTCACT; site = the 11-nt target
In short: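 Targets and IS621 bridge RNA target-binding loops were paired in oligos, each with a promoter, a barcode and the J23119-driven first 104 bridge RNA bases. A vector carrying the remaining 73 bp and a T7-inducible recombinase received these by Gibson cloning, and the pool was co-electroporated into E. coli with a donor plasmid. Duplicate plates contained chloramphenicol/ampicillin LB agar (control) or chloramphenicol/ampicillin/kanamycin with 0.1 mM IPTG. Recombination efficiency comes from averaged, control-corrected counts per million of recombinant-junction barcodes, reported as log10(CPM+1).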
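Further: IS621 recombinase and bridge RNA in Escherichia coli cells.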

Sequence	recombinant barcode read abundance (log10)
CTTCGGACTTGGGTTCTAACCTGTTGCAA (site CTTCGGACTTT)	1.62
CTTCGGACTTGGGTTCTAACCTGTTGCAA (site CTTCGGGCTTT)	0.223
CTTCGGGCTTGGGTTCTAACCTGTTGCAG (site CATCGGGCTCT)	1.25
CTTCGGGCTTGGGTTCTAACCTGTTGCAG (site CCTCGGGCTCT)	1.3
CTTCGGGCTTGGGTTCTAACCTGTTGCAG (site CGTCGGGCTCT)	0.0132
CTTCGGGCTTGGGTTCTAACCTGTTGCAG (site CTTCGGGCTCT)	1.96
CTTCGTCCTTGGGTTCTAACCTGTTGCAT (site CTTCGTCCTAA)	0.0066
CTTCGTCCTTGGGTTCTAACCTGTTGCAT (site CTTCGTCCTAC)	0.133
CTTCGTCCTTGGGTTCTAACCTGTTGCAT (site CTTCGTCCTAG)	0.139
CTTCGTCCTTGGGTTCTAACCTGTTGCAT (site CTTCGTCCTAT)	0.658
CTTGAATCTTGGGTTCTAACCTGTTGCCT (site CTTAAATCTAG)	0.117
CTTGAATCTTGGGTTCTAACCTGTTGCCT (site CTTCAATCTAG)	0.0867
CTTGAATCTTGGGTTCTAACCTGTTGCCT (site CTTGAATCTAG)	0.379
CTTGAATCTTGGGTTCTAACCTGTTGCCT (site CTTTAATCTAG)	0.337
CTTGAGACTTGGGTTCTAACCTGTTGCCT (site CTTCAGGCTAG)	0.256
CTTGAGACTTGGGTTCTAACCTGTTGCCT (site CTTGAGACTAG)	2.02
CTTGGACCTTGGGTTCTAACCTGTTGCAG (site CTTCGACCTAT)	0.00985
CTTGGACCTTGGGTTCTAACCTGTTGCAG (site CTTGGACCTCT)	2.55
CTTGGACCTTGGGTTCTAACCTGTTGCCT (site CTTGGAACTAG)	0.222
CTTGGACCTTGGGTTCTAACCTGTTGCCT (site CTTGGACCTAG)	1.74

Sequence	recombinant barcode read abundance (log10)
CTTGGACCTTGGGTTCTAACCTGTTGCCT (site CTTGGAGCTAG)	0.0408
CTTGGACCTTGGGTTCTAACCTGTTGCCT (site CTTGGATCTAG)	0.113
CTTGGTTCTTGGGTTCTAACCTGTTGCCT (site CTTGGGTCTAG)	0.108
CTTGGTTCTTGGGTTCTAACCTGTTGCCT (site CTTGGTTCTAG)	0.33
CTTTAAGCTTGGGTTCTAACCTGTTGCTA (site ACCGTTCCTAG)	0.0964
CTTTAAGCTTGGGTTCTAACCTGTTGCTA (site CTTTAAGCTTA)	0.195
CTTTAATCTTGGGTTCTAACCTGTTGCCT (site CTTAAATCTAG)	0.349
CTTTAATCTTGGGTTCTAACCTGTTGCCT (site CTTCAATCTAG)	0.158
CTTTAATCTTGGGTTCTAACCTGTTGCCT (site CTTGAATCTAG)	0.0679
CTTTAATCTTGGGTTCTAACCTGTTGCCT (site CTTTAATCTAG)	0.165
CTTTAGACTTGGGTTCTAACCTGTTGCAT (site CTCTAGACTAC)	0.0162
CTTTAGACTTGGGTTCTAACCTGTTGCAT (site CTTTAGACTAT)	0.926
CTTTCCTCTTGGGTTCTAACCTGTTGCCT (site CATTCCTCTAG)	0.153
CTTTCCTCTTGGGTTCTAACCTGTTGCCT (site CCTTCCTCTAG)	0.0332
CTTTCCTCTTGGGTTCTAACCTGTTGCCT (site CGTTCCTCTAG)	0.0618
CTTTCCTCTTGGGTTCTAACCTGTTGCCT (site CTTTCCTCTAG)	0.831
CTTTCCTCTTGGGTTCTAACCTGTTGCTT (site CATTACTCTAA)	0.2
CTTTCCTCTTGGGTTCTAACCTGTTGCTT (site CTTTCCTCTAA)	0.92
CTTTCGTCTTGGGTTCTAACCTGTTGCCT (site CTTTCACCTAG)	0.0235
CTTTCGTCTTGGGTTCTAACCTGTTGCCT (site CTTTCGTCTAG)	0.0335

Sequence	recombinant barcode read abundance (log10)
CTTTGAGCTTGGGTTCTAACCTGTTGCAT (site CTTCGGGCTAT)	0.0604
CTTTGAGCTTGGGTTCTAACCTGTTGCAT (site CTTTGAGCTAT)	0.632
CTTTGATCTTGGGTTCTAACCTGTTGCGT (site CATCGATCTAC)	0.0142
CTTTGATCTTGGGTTCTAACCTGTTGCGT (site CTTTGATCTAC)	1.29
GAAACAGCTTGGGTTCTAACCTGTTGCCT (site GAAACAGCTAG)	0.725
GAAACAGCTTGGGTTCTAACCTGTTGCCT (site GACACAGCTAG)	0.0141
GAAACAGCTTGGGTTCTAACCTGTTGCCT (site GAGACAGCTAG)	0.281
GAAACAGCTTGGGTTCTAACCTGTTGCCT (site GATACAGCTAG)	0.158
GAAAGTCCTTGGGTTCTAACCTGTTGCCT (site GAAAATCCTAG)	0.0602
GAAAGTCCTTGGGTTCTAACCTGTTGCCT (site GAAACTCCTAG)	0.0877
GAAAGTCCTTGGGTTCTAACCTGTTGCCT (site GAAAGTCCTAG)	0.917
GAAAGTCCTTGGGTTCTAACCTGTTGCCT (site GAAATTCCTAG)	0.0822
GAAATACCTTGGGTTCTAACCTGTTGCGG (site AGCTATGCTAG)	0.131
GAAATACCTTGGGTTCTAACCTGTTGCGG (site GAAATACCTCC)	1.41
GAACAGCCTTGGGTTCTAACCTGTTGCGT (site ATTGCTACTTG)	0.278
GAACAGCCTTGGGTTCTAACCTGTTGCGT (site GAACAGCCTAC)	0.943
GAACCACCTTGGGTTCTAACCTGTTGCCT (site GAACCACCTAG)	1.75
GAACCACCTTGGGTTCTAACCTGTTGCCT (site TCACCACCTAG)	0.133
GAACCTACTTGGGTTCTAACCTGTTGCCG (site GAACCTACTCG)	0.583
